Read-outs that look alike come from different tables or passages of the source.

The subject of one assay is L929 cells. The assay can be described thus: L929 cell necroptosis assay (TNFa + zVAD, CellTiter-Glo recovery). The following applies: Mus musculus, L929, 18 h, TNFa 2 ng/mL + zVAD-fmk, read-out: L929-CTG-recovery, L929, TNFa + zVAD (IC50). Format: cell-based, murine. In outline: (§1)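 Human U937 (50K/well, 60 uM zVAD-fmk medium, plated same day) or murine L929 (10K/well, plated 18 h, then 40 uM zVAD-fmk medium) were grown in RPMI with 10% FBS. Both were pretreated with compound for 1 h at 37 °C before TNFa at 2 ng/mL final. Viability was read by CellTiter-Glo luminescence after 18 h.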

In the next assay the test system is U937 cells. The assay can be described thus: U937 cell necroptosis assay (TNFa + zVAD, CellTiter-Glo recovery). The settings on record: Homo sapiens, U-937, 18 h, TNFa 2 ng/mL + zVAD-fmk, read-out: U937 Zvad TNF CTG Recovery, U937, TNFa + zVAD (IC50). Format: cell-based. In outline: as §1
For orientation: In ATP-based viability assays light output follows the ATP content of the culture.

The next assay concerns the target T1, RIPK1 (Homo sapiens, UniProt Q13546).
T1 sequence (Q13546 1-671): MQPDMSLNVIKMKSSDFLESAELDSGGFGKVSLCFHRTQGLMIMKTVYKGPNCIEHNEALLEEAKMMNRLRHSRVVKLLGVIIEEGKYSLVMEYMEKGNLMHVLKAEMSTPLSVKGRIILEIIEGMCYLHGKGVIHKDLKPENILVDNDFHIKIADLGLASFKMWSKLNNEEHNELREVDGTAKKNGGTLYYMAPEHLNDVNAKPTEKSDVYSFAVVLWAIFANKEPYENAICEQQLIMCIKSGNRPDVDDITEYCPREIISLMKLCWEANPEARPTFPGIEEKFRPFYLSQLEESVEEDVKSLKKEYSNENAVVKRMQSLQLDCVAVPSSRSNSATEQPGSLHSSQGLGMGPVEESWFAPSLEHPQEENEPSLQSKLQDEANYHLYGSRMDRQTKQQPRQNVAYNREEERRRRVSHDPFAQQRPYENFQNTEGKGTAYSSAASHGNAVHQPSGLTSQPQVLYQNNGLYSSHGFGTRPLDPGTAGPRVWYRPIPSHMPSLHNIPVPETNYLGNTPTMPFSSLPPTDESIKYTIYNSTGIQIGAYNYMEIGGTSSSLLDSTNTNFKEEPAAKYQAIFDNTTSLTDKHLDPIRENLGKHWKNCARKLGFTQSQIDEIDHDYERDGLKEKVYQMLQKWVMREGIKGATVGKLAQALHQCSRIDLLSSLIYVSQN
The assay is described as follows: RIPK1 ADP-Glo biochemical kinase assay. In outline:
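RIPK1 at 31 ng/well in Tris pH 7.4 buffer with MgCl2, BSA, DTT and MnCl2, reacted with compounds (duplicate) for 30 min at 30 °C. ADP formed detected by ADP-Glo: 40 min stop/depletion, then 30 min detection reagent at room temperature; luminescence read.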
For orientation: ADP-Glo turns the ADP formed in a reaction into a luminescent signal.

[1] abbreviates: read-out: RIPK1 ADP-Glo Kinase (IC50).

In the case of `CN1C(=O)[C@@H](NC(=O)n2cc(Cc3cccnc3F)cn2)COc2ccc(C#CC3(O)COC3)cc21` [I-47, (S)-4-((2-Fluoropyridin-3-yl)methyl)-N-(7-((3-hydroxyoxetan-3-yl)ethynyl)-5-methyl-4-oxo-2,3,4,5-tetrahydrobenzo[b][1,4]oxazepin-3-yl)-1H-pyrazole-1-carboxamide], the values for the IC50 in the assay on L929 cells, with U937 cells and on RIPK1 (setting [1]) were 2900 nM, 40.8 nM and 17.5 nM, respectively.
The like results for `Cc1ccc(Cc2cnn(C(=O)N[C@H]3COc4ccc(C#CC(C)(C)O)cc4N(C)C3=O)c2)cn1` [I-15, (S)—N-(7-(3-Hydroxy-3-methylbut-1-yn-1-yl)-5-methyl-4-oxo-2,3,4,5-tetrahydrobenzo[b][1,4]oxazepin-3-yl)-4-((6-methylpyridin-3-yl)methyl)-1H-pyrazole-1-carboxamide] were, in that order, 1680 nM, 27.5 nM and 19.4 nM.
The like results for `Cc1ccc(Cc2ccnc(C(=O)N[C@H]3COc4ccc(C#CC5(O)COC5)cc4N(C)C3=O)c2)cn1` [I-73, (S)—N-(7-((3-hydroxyoxetan-3-yl)ethynyl)-5-methyl-4-oxo-2,3,4,5-tetrahydrobenzo[b][1,4]oxazepin-3-yl)-4-((6-methylpyridin-3-yl)methyl)picolinamide] were, in that order, 1950 nM, 91.7 nM and 27.6 nM.
The like results for `CN1C(=O)[C@@H](NC(=O)c2cc(Oc3cncc(F)c3)ccn2)COc2ccc(C#CC3COC3)cc21` [I-67, (S)-4-((5-fluoropyridin-3-yl)oxy)-N-(5-methyl-7-(oxetan-3-ylethynyl)-4-oxo-2,3,4,5-tetrahydrobenzo[b][1,4]oxazepin-3-yl)picolinamide] were, in that order, 348 nM, 1.3 nM and 20.1 nM.
In the case of `CN1C(=O)[C@@H](NC(=O)c2cc(Oc3cnn(C)c3)ccn2)COc2ccc(C#CC3(O)CCC3)cc21` [I-133, (S)—N-(7-((1-hydroxycyclobutyl)ethynyl)-5-methyl-4-oxo-2,3,4,5-tetrahydrobenzo[b][1,4]oxazepin-3-yl)-4-((1-methyl-1H-pyrazol-4-yl)oxy)picolinamide], the IC50 (usually the concentration at which inhibition is half-maximal) in the assay with L929 cells came out at 58.2 nM; in the assay with U937 cells, 5.2 nM; on RIPK1 (setting [1]), 14 nM.
The like results for `Cc1cccc(Cc2cnn(C(=O)N[C@H]3COc4ccc(C#CC5(O)COC5)cc4N(C)C3=O)c2)n1` [I-103, (S)—N-(7-((3-Hydroxyoxetan-3-yl)ethynyl)-5-methyl-4-oxo-2,3,4,5-tetrahydrobenzo[b][1,4]oxazepin-3-yl)-4-((6-methylpyridin-2-yl)methyl)-1H-pyrazole-1-carboxamide] were, in that order, 1290 nM, 105 nM and 15.4 nM.
`CN1C(=O)[C@@H](NC(=O)n2cc(Cc3cccc(F)n3)cn2)CCc2ccc(C#CC3(O)CCOCC3)cc21` [I-116, (S)-4-((6-Fluoropyridin-2-yl)methyl)-N-(8-((4-hydroxytetrahydro-2H-pyran-4-yl)ethynyl)-1-methyl-2-oxo-2,3,4,5-tetrahydro-1H-benzo[b]azepin-3-yl)-1H-pyrazole-1-carboxamide]: the IC50 with L929 cells amounted to 69.4 nM; in the assay with U937 cells, 0.5 nM; on RIPK1 (setting [1]), 12.9 nM.
For the compound `CN1C(=O)[C@@H](NC(=O)n2cc(Cc3cccc(F)n3)cn2)CCc2ccc(C#CC3(O)CCC3)cc21` [I-117, (S)-4-((6-Fluoropyridin-2-yl)methyl)-N-(8-((1-hydroxycyclobutyl)ethynyl)-1-methyl-2-oxo-2,3,4,5-tetrahydro-1H-benzo[b]azepin-3-yl)-1H-pyrazole-1-carboxamide], the IC50 in the assay on L929 cells came out at 13.1 nM; with U937 cells, 1.2 nM; against RIPK1, 12.3 nM.
Regarding `Cc1ccc(Oc2ccnc(C(=O)N[C@H]3COc4ccc(C#CC5(O)COC5)cc4N(C)C3=O)c2)cn1` [I-3, (S)—N-(7-((3-hydroxyoxetan-3-yl)ethynyl)-5-methyl-4-oxo-2,3,4,5-tetrahydrobenzo[b][1,4]oxazepin-3-yl)-4-((6-methylpyridin-3-yl)oxy)picolinamide], the half-inhibitory concentration (IC50) worked out at 3850 nM in the assay with L929 cells, 152 nM with U937 cells and 28.9 nM at RIPK1 (setting [1]).
The like results for `CN1C(=O)[C@@H](NC(=O)c2cc(Cc3csc(C(F)(F)F)n3)ccn2)COc2ccc(C#CC(C)(C)O)cc21` [I-123, (S)—N-(7-(3-hydroxy-3-methylbut-1-yn-1-yl)-5-methyl-4-oxo-2,3,4,5-tetrahydrobenzo[b][1,4]oxazepin-3-yl)-4-((2-(trifluoromethyl)thiazol-4-yl)methyl)picolinamide] were, in that order, 853 nM, 97.8 nM and 20 nM.
As for `CN1C(=O)[C@@H](NC(=O)n2cc(Cc3cccc(F)n3)cn2)COc2ccc(C#CC3(O)COC3)cc21` [I-32, (S)-4-((6-Fluoropyridin-2-yl)methyl)-N-(7-((3-hydroxyoxetan-3-yl)ethynyl)-5-methyl-4-oxo-2,3,4,5-tetrahydrobenzo[b][1,4]oxazepin-3-yl)-1H-pyrazole-1-carboxamide], the half-maximal inhibitory concentration (IC50) was 682 nM in the assay on L929 cells, 16.3 nM with U937 cells and 16.2 nM on RIPK1 (setting [1]).
The like results for `Cc1cccc(Cc2ccnc(C(=O)N[C@H]3COc4ccc(C#CC(C)(C)O)cc4N(C)C3=O)c2)n1` [I-11, (S)—N-(7-(3-hydroxy-3-methylbut-1-yn-1-yl)-5-methyl-4-oxo-2,3,4,5-tetrahydrobenzo[b][1,4]oxazepin-3-yl)-4-((6-methylpyridin-2-yl)methyl)picolinamide] were, in that order, 7430 nM, 126 nM and 120 nM.
For the compound `CN1C(=O)[C@@H](NC(=O)c2cc(Cc3cccc(F)n3)ccn2)COc2ccc(C#CC(C)(C)C)cc21` [I-97, (S)—N-(7-(3,3-dimethylbut-1-yn-1-yl)-5-methyl-4-oxo-2,3,4,5-tetrahydrobenzo[b][1,4]oxazepin-3-yl)-4-((6-fluoropyridin-2-yl)methyl)picolinamide], the IC50 was determined as 386 nM in the assay on L929 cells, 16.4 nM in the assay on U937 cells and 83.2 nM on RIPK1 (setting [1]).
The like results for `Cc1cccc(Cc2ccnc(C(=O)N[C@H]3COc4ccc(C#CC5(O)COC5)cc4N(C)C3=O)c2)n1` [I-12, (S)—N-(7-((3-hydroxyoxetan-3-yl)ethynyl)-5-methyl-4-oxo-2,3,4,5-tetrahydrobenzo[b][1,4]oxazepin-3-yl)-4-((6-methylpyridin-2-yl)methyl)picolinamide] were, in that order, 3470 nM, 73.4 nM and 25.2 nM.
The like results for `CN1C(=O)[C@@H](NC(=O)n2cc(Cc3cccc(F)n3)cn2)CCc2c(F)cc(C#CC(C)(C)CO)cc21` [I-122, (S)—N-(6-Fluoro-8-(4-hydroxy-3,3-dimethylbut-1-yn-1-yl)-1-methyl-2-oxo-2,3,4,5-tetrahydro-1H-benzo[b]azepin-3-yl)-4-((6-fluoropyridin-2-yl)methyl)-1H-pyrazole-1-carboxamide] were, in that order, 8670 nM, 97.4 nM and 32.5 nM.
The like results for `CN1C(=O)[C@@H](NC(=O)c2cc(Cc3csc(C(F)(F)F)n3)ccn2)COc2ccc(C#CC3(O)COC3)cc21` [I-124, (S)—N-(7-((3-hydroxyoxetan-3-yl)ethynyl)-5-methyl-4-oxo-2,3,4,5-tetrahydrobenzo[b][1,4]oxazepin-3-yl)-4-((2-(trifluoromethyl)thiazol-4-yl)methyl)picolinamide] were, in that order, 1590 nM, 113 nM and 30.4 nM.
For the compound `CN1C(=O)[C@@H](NC(=O)c2cc(Oc3cncc(F)c3)ccn2)COc2ccc(C#CC(C)(C)C)cc21` [I-101, (S)—N-(7-(3,3-dimethylbut-1-yn-1-yl)-5-methyl-4-oxo-2,3,4,5-tetrahydrobenzo[b][1,4]oxazepin-3-yl)-4-((5-fluoropyridin-3-yl)oxy)picolinamide], the results for the IC50 in the assay on L929 cells, with U937 cells and at RIPK1 (setting [1]) were 1580 nM, 9.1 nM and 55.2 nM, respectively.
The like results for `CN1C(=O)[C@@H](NC(=O)c2cc(Oc3cccnc3C(F)(F)F)ccn2)COc2ccc(C#CC3(O)COC3)cc21` [I-88, (S)—N-(7-((3-hydroxyoxetan-3-yl)ethynyl)-5-methyl-4-oxo-2,3,4,5-tetrahydrobenzo[b][1,4]oxazepin-3-yl)-4-((2-(trifluoromethyl)pyridin-3-yl)oxy)picolinamide] were, in that order, 10600 nM, 133 nM and 56.3 nM.

(Values after patent publication US12156880B2, “Heterocyclic RIP1 kinase inhibitors” (Rigel Pharmaceuticals, Inc., priority 2021, dated 2024).)
